Test results from patent US20030017186A1, “Carboxylic acid fluorides as pesticides” (priority 1999, published 2003).

How the values were obtained:
Type in all cases: in vivo
Incisitermes tabogae = assay: Termite control fumigation test, Incisitermes tabogae; conditions: Example 6
From the text: c) American drywood termites (Cryptotermes brevis)=CRYPBR, and Incisitermes tabogae=INCITA
The test organisms, separated by species, were placed into a glass vessel measuring 30 cm×30 cm×60 cm, which was sealed with a glass lid so as to be airtight. The adults and the larvae of the mealworm beetle (Tenebrio molitor) and the broad-horned flour beetle (Gnathocerus cornutus) were placed into small glass vessels approximately 5 cm in diameter, which were closed with a gauze lid and in which they could freely move about. The larvae of the rice weevil had burrowed into seeds of grain. The wood pest larvae were inserted into small blocks of wood measuring 5 cm×2.5 cm×2 cm. The openings were sealed with wads of cotton wool. Only one each of the larvae of the house longhorn beetle (Hylotrupes bajulus) was inserted into a piece of wood, while 6-8 larvae of the common furniture beetle (Anobium punctatum) were inserted into each piece of wood.
The respective gas was then introduced into the fumigation vessel through a gas line from a gas tank that contained the specified amount of gas. After a defined time period, the fumigation vessel was purged with compressed air. The discharged gas was purified by an attached gas scrubber.
The beetles were observed until they died. This point was recorded for each species. The larvae of the wood pests as well as the larvae of the rice weevil (Sitophilus oryzae) had to be picked out of the wood or the grain to check their condition. If any of the animals were still alive, the wooden test blocks remaining in the vessel were fumigated again and were reexamined after the corresponding time span had elapsed. The same number of animals in the untreated control was also checked at each point.
The vitality of the animals was checked at certain time intervals. The beetles could be observed through the fumigation vessel. This was also true for the larvae of the mealworm beetle and the broad-horned flour beetle. The wooden test blocks of the wood pest larvae were opened with hammer and chisel. Tweezers were used to pull the rice weevil larvae out of the grain seeds. The exact time intervals and the number of the evaluated pests were documented in the test results.

[1] = tested on: Saw-toothed grain beetle (Oryzaephilus surinamensis); assay: Fumigation test in glass vessel, saw-toothed grain beetles; conditions: ORYZSA beetles
[2] = tested on: Broad-horned flour beetle (Gnathocerus cornutus); assay: Fumigation test in glass vessel, broad-horned flour beetles; conditions: GNATCO beetles
[3] = tested on: Rice weevil (Sitophilus oryzae); assay: Fumigation test in glass vessel, rice weevils; conditions: SITTOR beetles
[4] = tested on: Mealworm beetle (Tenebrio molitor) larvae; assay: Fumigation test in glass vessel, mealworm beetle larvae; conditions: TENEMO larvae
[5] = INCITA termites, ACF 50.0/53.8 g/m^3, SF 47.8/44.8 g/m^3 (1st/2nd fumigation), 23.7/24° C.
[6] = Example 4, gas 36.5 g/m^3, 19.3° C., 54% rel. air humidity
[7] = Example 5, ACF 50.6/48.2/51.4 g/m^3, SF 47.4/44.6/41 g/m^3 (1st/2nd/3rd fumigation), 23/23/22° C.
[8] = Example 7, ACF 53.0/54.6/0 g/m^3, second gas (SF) 43.6/41.4/39.8 g/m^3 (1st/2nd/3rd fumigation), 20.0/20.2/19.8 C.

CC(=O)F [ACF, acetyl fluoride]
Number of Incisitermes still alive on reexamination after 24-hour observation period (Incisitermes tabogae; out of 30 animals fumigated 1 hour, then 24-hour observation): 3 | Number alive, 30 min. after 1st Fumigation (Incisitermes tabogae; [5]): 90 | Number alive, 1 hr. after 1st Fumigation (Incisitermes tabogae; [5]): 30 | Number alive, 3 hrs. after 1st Fumigation (Incisitermes tabogae; [5]): 0 | Number dead, 30 min. after 1st Fumigation (Incisitermes tabogae; [5]): 0 | Number dead, 1 hr. after 1st Fumigation (Incisitermes tabogae; [5]): 0 | Number dead, 3 hrs. after 1st Fumigation (Incisitermes tabogae; [5]): 60 | Number alive, 1 hr. after Start of Fumigation [1, 6]: 0 | Number dead, 1 hr. after Start of Fumigation [1, 6]: 25 | Number alive, 30 min. after Start of Fumigation [1, 7]: 0 | Number dead, 30 min. after Start of Fumigation [1, 7]: 15 | Number alive, 30 min. after 1st Fumigation [1, 8]: 0 | Number dead, 30 min. after 1st Fumigation [1, 8]: 15 | Number alive, 1 hr. after Start of Fumigation [2, 6]: 13 | Number alive, 2 hrs. after Start of Fumigation [2, 6]: 3 | Number alive, 12 hrs. after Start of Fumigation [2, 6]: 0 | Number dead, 1 hr. after Start of Fumigation [2, 6]: 12 | Number dead, 2 hrs. after Start of Fumigation [2, 6]: 22 | Number dead, 12 hrs. after Start of Fumigation [2, 6]: 25 | Number alive, 30 min. after Start of Fumigation [2, 7]: 0 | Number dead, 30 min. after Start of Fumigation [2, 7]: 15 | Number alive, 30 min. after 1st Fumigation [2, 8]: 0 | Number dead, 30 min. after 1st Fumigation [2, 8]: 15 | Number alive, 1 hr. after Start of Fumigation [3, 6]: 0 | Number dead, 1 hr. after Start of Fumigation [3, 6]: 25 | Number alive, 30 min. after Start of Fumigation [3, 7]: 0 | Number dead, 30 min. after Start of Fumigation [3, 7]: 15 | Number alive, 30 min. after 1st Fumigation [3, 8]: 0 | Number dead, 30 min. after 1st Fumigation [3, 8]: 15 | Number alive, 1 hr. after Start of Fumigation [4, 6]: 5 | Number alive, 2 hrs. after Start of Fumigation [4, 6]: 0 | Number dead, 1 hr. after Start of Fumigation [4, 6]: 5 | Number dead, 2 hrs. after Start of Fumigation [4, 6]: 10 | Number alive, 30 min. after Start of Fumigation [4, 7]: 0 | Number dead, 30 min. after Start of Fumigation [4, 7]: 10 | Number alive, 30 min. after 1st Fumigation [4, 8]: 5 | Number alive, 1 hr. after 1st Fumigation [4, 8]: 0 | Number dead, 30 min. after 1st Fumigation [4, 8]: 5 | Number dead, 1 hr. after 1st Fumigation [4, 8]: 10
